This note sets out measurements from patent US8178658B2 (Dow AgroSciences, LLC, priority 2008, dated 2012).

Where only a bound is given, the exact number is not on record here.

The test system of assay [1] is beet armyworm (BAW; Spodoptera exigua: Lepidoptera). As to the kind of experiment: 96-well microtiter plate-based high throughput (HTS) diet bioassay on beet armyworm (BAW HTS). It counts as in vivo. The conditions noted are these: BAW eggs, 12 μg test compound per well, mortality at 6 d post-treatment, mortality class; for pest or weed control at 12 µg/well, 12 µg/well: Spodoptera exigua, 144 h, read-out: BAW HTS. Summed up: (§1)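 Percent larval mortality after six days was the endpoint. Higher-throughput plates used eggs, 12 μg compound per well and 29° C darkness; trays used second instar larvae, a 50 μg/cm^2 dose and 25° C with 14:10 light cycle.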

Assay [2] has the same test system. As to the kind of experiment: 128-well diet tray assay on beet armyworm (BAW 50). To be noted: 128-well diet tray assay, second instar BAW larvae, mortality class; for BAW 50 ug/cm2: 50 μg/cm^2 of test compound on diet; for pest or weed control at 50 µg/cm2, 50 µg/cm2: Spodoptera exigua, 144 h, 50 μg/cm2 of test compound on diet, read-out: BAW 50 ug/cm2. The format is in vivo. In short, it runs like this: as §1

[3] abbreviates: 96-well microtiter plate HTS diet assay.

As to `COC1C(C)OC(ON=Cc2ccc(-c3ncn(-c4cccc(OC(F)(F)F)c4)n3)cc2)C(OC)C1OC` (stereo not drawn) [Compound 91], the “BAW HTS” value in assay [1] (96-well HTS diet bioassay) was “B (either (1) the compound was tested and less than 50 percent mortality was observed or (2) the compound was not tested)”; in assay [1] (setting [3]) it was “B (either (1) the compound was tested and less than 50 percent mortality was observed or (2) the compound was not tested)”. The “BAW 50 ug/cm2” value in assay [2] is “A (the compound was tested and at least 50 percent mortality was observed)”.
In the case of `CCOC1C(C)OC(ON=Cc2ccc(-c3ncn(-c4ccc(OC(F)(F)C(F)(F)F)cc4)n3)cc2)C(OCC)C1OCC` (stereo not drawn) [Compound 92], the “BAW HTS” value was “B (either (1) the compound was tested and less than 50 percent mortality was observed or (2) the compound was not tested)” in assay [1] (96-well HTS diet bioassay); “B (either (1) the compound was tested and less than 50 percent mortality was observed or (2) the compound was not tested)” in assay [1] (setting [3]). Further, the “BAW 50 ug/cm2” value in assay [2] is “A (the compound was tested and at least 50 percent mortality was observed)”.
Take `CCOC1C(OC)C(C)OC(ON=Cc2ccc(-c3ncn(-c4ccc(OC(F)(F)C(F)(F)F)cc4)n3)cc2)C1OC` (stereo not drawn) [Compound 93]: the “BAW HTS” value in assay [1] (96-well HTS diet bioassay) was “A (the compound was tested and at least 50 percent mortality was observed)”; in assay [1] (setting [3]), “A (the compound was tested and at least 50 percent mortality was observed)”. Moreover, the “BAW 50 ug/cm2” value in assay [2] is “A (the compound was tested and at least 50 percent mortality was observed)”.
As to `CO[C@@H]1[C@@H](OC)[C@H](C)O[C@@H](O/N=C/c2ccc(-c3ncn(-c4ccc(OC(F)(F)C(F)C(F)(F)F)cn4)n3)cc2)[C@@H]1OC` (stereo partly drawn) [Compound 94, 4-{1-[5-(1,1,2,3,3,3-hexafluoropropoxy)-pyridinyl]-1H-[1,2,4]triazol-3-yl}-benzaldehyde O-((2S,3R,4R,5S,6S)-3,4,5-trimethoxy-6-methyl-tetrahydropyran-2-yl)-oxime], in assay [1] (setting [3]), the “BAW HTS” value was “B (either (1) the compound was tested and less than 50 percent mortality was observed or (2) the compound was not tested)”. Further, the pest or weed control at 12 µg/well, 12 µg/well in assay [1] (96-well HTS diet bioassay) is below 50%. In assay [2], the “BAW 50 ug/cm2” value was “A (the compound was tested and at least 50 percent mortality was observed)”; the pest or weed control at 50 µg/cm2, 50 µg/cm2 is above 50%.
As to `COC1C(C)OC(ON=Cc2ccc(-c3nc(-c4ccc(C(F)(F)F)cc4)n[nH]3)cc2)C(OC)C1OC` (stereo not drawn) [Compound 95], the “BAW HTS” value in assay [1] (96-well HTS diet bioassay) was “B (either (1) the compound was tested and less than 50 percent mortality was observed or (2) the compound was not tested)”; in assay [1] (setting [3]) it was “B (either (1) the compound was tested and less than 50 percent mortality was observed or (2) the compound was not tested)”. Further, the “BAW 50 ug/cm2” value in assay [2] was “A (the compound was tested and at least 50 percent mortality was observed)”.
As to `COC1C(C)OC(ON=Cc2ccc(-c3nc(-c4ccc(Cl)cc4)n[nH]3)cc2)C(OC)C1OC` (stereo not drawn) [Compound 96], the “BAW HTS” value in assay [1] (96-well HTS diet bioassay) is “B (either (1) the compound was tested and less than 50 percent mortality was observed or (2) the compound was not tested)”; in assay [1] (setting [3]), “B (either (1) the compound was tested and less than 50 percent mortality was observed or (2) the compound was not tested)”. In assay [2], the “BAW 50 ug/cm2” value is “A (the compound was tested and at least 50 percent mortality was observed)”.
As for `COC1C(C)OC(ON=Cc2ccc(-c3nc(-c4ccc(C(C)(C)C)cc4)n[nH]3)cc2)C(OC)C1OC` (stereo not drawn) [Compound 97], the “BAW HTS” value in assay [1] (96-well HTS diet bioassay) was “B (either (1) the compound was tested and less than 50 percent mortality was observed or (2) the compound was not tested)”; in assay [1] (setting [3]), “B (either (1) the compound was tested and less than 50 percent mortality was observed or (2) the compound was not tested)”. For the same compound, the “BAW 50 ug/cm2” value in assay [2] is “A (the compound was tested and at least 50 percent mortality was observed)”.
In the case of `COC1C(C)OC(ON=Cc2ccc(-c3nn(-c4ccc(Cl)c(Cl)c4)c(=O)[nH]3)cc2)C(OC)C1OC` (stereo not drawn) [Compound 98], the “BAW HTS” value in assay [1] (96-well HTS diet bioassay) was “B (either (1) the compound was tested and less than 50 percent mortality was observed or (2) the compound was not tested)”; in assay [1] (setting [3]), “B (either (1) the compound was tested and less than 50 percent mortality was observed or (2) the compound was not tested)”. Further, in assay [2], the “BAW 50 ug/cm2” value was “A (the compound was tested and at least 50 percent mortality was observed)”.
For the compound `COC1C(C)OC(ON=Cc2ccc(-c3nn(-c4c(F)c(F)c(C(F)(F)F)c(F)c4F)c(=O)[nH]3)cc2)C(OC)C1OC` (stereo not drawn) [Compound 99], the “BAW HTS” value in assay [1] (96-well HTS diet bioassay) is “B (either (1) the compound was tested and less than 50 percent mortality was observed or (2) the compound was not tested)”; in assay [1] (setting [3]) it was “B (either (1) the compound was tested and less than 50 percent mortality was observed or (2) the compound was not tested)”. In addition, the “BAW 50 ug/cm2” value in assay [2] was “A (the compound was tested and at least 50 percent mortality was observed)”.
On to `COC1C(C)OC(ON=Cc2ccc(-c3nn(-c4ccc(F)cc4F)c(=O)[nH]3)cc2)C(OC)C1OC` (stereo not drawn) [Compound 100], for which the “BAW HTS” value in assay [1] (96-well HTS diet bioassay) is “B (either (1) the compound was tested and less than 50 percent mortality was observed or (2) the compound was not tested)”; in assay [1] (setting [3]), “B (either (1) the compound was tested and less than 50 percent mortality was observed or (2) the compound was not tested)”. Besides, the “BAW 50 ug/cm2” value in assay [2] was “A (the compound was tested and at least 50 percent mortality was observed)”.
Turning to `COC1C(C)OC(ON=Cc2ccc(-c3nn(-c4ccc(OC(F)(F)F)cc4)c(=O)[nH]3)cc2)C(OC)C1OC` (stereo not drawn) [Compound 101], the “BAW HTS” value in assay [1] (96-well HTS diet bioassay) was “B (either (1) the compound was tested and less than 50 percent mortality was observed or (2) the compound was not tested)”; in assay [1] (setting [3]), “B (either (1) the compound was tested and less than 50 percent mortality was observed or (2) the compound was not tested)”. The “BAW 50 ug/cm2” value in assay [2] was “A (the compound was tested and at least 50 percent mortality was observed)”.
With `COC1C(C)OC(ON=Cc2ccc(-c3ncn(-c4ccc(Br)cc4)n3)cc2)C(OC)C1OC` (stereo not drawn) [Compound 102], the “BAW HTS” value was “B (either (1) the compound was tested and less than 50 percent mortality was observed or (2) the compound was not tested)” in assay [1] (96-well HTS diet bioassay); “B (either (1) the compound was tested and less than 50 percent mortality was observed or (2) the compound was not tested)” in assay [1] (setting [3]). For the same compound, the “BAW 50 ug/cm2” value in assay [2] is “B (either (1) the compound was tested and less than 50 percent mortality was observed or (2) the compound was not tested)”.
In the case of `CO[C@@H]1[C@@H](OC)[C@H](C)O[C@@H](ON=Cc2ccc(-c3ncn(-c4ccc([S+]([O-])C(F)(F)F)cc4)n3)cc2)[C@@H]1OC` (stereo partly drawn) [Compound 103, 4-[1-(4-trifluoromethanesulfinylphenyl)-1H-[1,2,4]triazol-3-yl]-benzaldehyde O-((2S,3R,4R,5S,6S)-3,4,5-trimethoxy-6-methyl-tetrahydropyran-2-yl)-oxime], the “BAW HTS” value in assay [1] (setting [3]) was “B (either (1) the compound was tested and less than 50 percent mortality was observed or (2) the compound was not tested)”. For the same compound, the pest or weed control at 12 µg/well, 12 µg/well in assay [1] (96-well HTS diet bioassay) is below 50%. Moreover, in assay [2], the “BAW 50 ug/cm2” value was “A (the compound was tested and at least 50 percent mortality was observed)”; the pest or weed control at 50 µg/cm2, 50 µg/cm2 is above 50%.
On to `CO[C@@H]1[C@@H](OC)[C@H](C)O[C@@H](ON=Cc2ccc(-c3ncn(-c4ccc(S(=O)(=O)C(F)(F)F)cc4)n3)cc2)[C@@H]1OC` [Compound 104, 4-[1-(4-trifluoromethanesulfonylphenyl)-1H-[1,2,4]triazol-3-yl]-benzaldehyde O-((2S,3R,4R,5S,6S)-3,4,5-trimethoxy-6-methyl-tetrahydropyran-2-yl)-oxime], for which, in assay [1] (setting [3]), the “BAW HTS” value was “B (either (1) the compound was tested and less than 50 percent mortality was observed or (2) the compound was not tested)”. In assay [1] (96-well HTS diet bioassay), the pest or weed control at 12 µg/well, 12 µg/well is below 50%. In assay [2], the “BAW 50 ug/cm2” value is “A (the compound was tested and at least 50 percent mortality was observed)”; the pest or weed control at 50 µg/cm2, 50 µg/cm2 is above 50%.
`COC1C(C)OC(ON=Cc2ccc(-c3ncn(-c4ccc(SC(F)(F)C(F)(F)F)cc4)n3)cc2)C(OC)C1OC` (stereo not drawn) [Compound 105]: the “BAW HTS” value in assay [1] (96-well HTS diet bioassay) is “B (either (1) the compound was tested and less than 50 percent mortality was observed or (2) the compound was not tested)”; in assay [1] (setting [3]) it was “B (either (1) the compound was tested and less than 50 percent mortality was observed or (2) the compound was not tested)”. Besides, the “BAW 50 ug/cm2” value in assay [2] was “A (the compound was tested and at least 50 percent mortality was observed)”.
Regarding `CCCOC1C(OC)C(C)OC(ON=Cc2ccc(-c3ncn(-c4ccc(OC(F)(F)C(F)(F)F)cc4)n3)cc2)C1OC` (stereo not drawn) [Compound 106], the “BAW HTS” value in assay [1] (96-well HTS diet bioassay) was “B (either (1) the compound was tested and less than 50 percent mortality was observed or (2) the compound was not tested)”; in assay [1] (setting [3]), “B (either (1) the compound was tested and less than 50 percent mortality was observed or (2) the compound was not tested)”. Further, the “BAW 50 ug/cm2” value in assay [2] is “A (the compound was tested and at least 50 percent mortality was observed)”.
For `CCCOC1C(OC)C(C)OC(ON=Cc2ccc(-c3ncn(-c4ccc(C(F)(F)F)cc4)n3)cc2)C1OC` (stereo not drawn) [Compound 107], the “BAW HTS” value in assay [1] (96-well HTS diet bioassay) was “A (the compound was tested and at least 50 percent mortality was observed)”; in assay [1] (setting [3]), “A (the compound was tested and at least 50 percent mortality was observed)”. Further, the “BAW 50 ug/cm2” value in assay [2] is “A (the compound was tested and at least 50 percent mortality was observed)”.
